The text below walks through data of PubChem BioAssay (NCI).

Structures are written as SMILES.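 Results reflect a 48-hour exposure of cells in 96-well plates to compound at five concentrations. GI50: concentration for 50% inhibition of growth. TGI: concentration producing complete growth inhibition.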 Bounds are passed on as bounds.

In one test the test system is SF-539 CNS. The test is described as follows: NCI tumour cell line growth inhibition, 48 h.
Compound `COc1ccccc1Nc1nc(N)nc(N)c1N=O` registered a TGI above 100 µM.
Still for that read-out and setting: for `COc1cccc2c(N)c3cccc(C(=O)NCCN(C)C)c3nc12` the value was 0.758 µM; for `O=C(CCCCCCCCC(=O)NN1C(=O)/C(=C\c2ccc(O)c(O)c2)SC1c1ccc(Cl)cc1)NN1C(=O)/C(=C\c2ccc(O)c(O)c2)SC1c1ccc(Cl)cc1` (centres undefined), 43.8 µM; for `CC(C)Sc1nc(C#N)cc2c1CCCC2`, above 100 µM.
Still for that read-out and setting: for `NC(=O)N/N=C(\Cc1nc2ccc(Cl)cc2[nH]c1=O)C(=O)Nc1ccc(Cl)cc1Cl` the value was above 100 µM; for `O=C1/C(=C/c2ccccc2)N=C(c2ccccc2)N1n1c(-c2ccccc2)nc2ccccc2c1=O`, above 100 µM.

For the next test, the system named is SK-OV-3 ovarian. The test can be described thus: NCI tumour cell line growth inhibition, 48 h.
`COCOC1/C=C/CCCC#C[C@H](C)C(=O)CC1` (some centres undefined) came in with a TGI of 29.3 µM.
For `COc1ccc2[nH]c(O)c(/C=c3/cc4c(c(-c5cc(OC)c(OC)c(OC)c5)n3)=Nc3ccccc3-4)c2c1`, the GI50 was above 100 µM and the TGI is above 100 µM.
Consider `CC[C@]1(Cc2ccc(OC)c(OC)c2)CN(S(=O)(=O)c2ccc(C)cc2)C[C@@H]1OC(C)=O`, for which the TGI was above 100 µM.
The same measure, in the same setting: for `NCC1CCN(c2nc3ccccc3c3c2CCCC3)CC1` the value was 29.6 µM.
On the same count and under the same terms, as for `Cc1c(F)c(N)c2c(=O)cc(-c3ccc(NC(=O)CN(C)C)c(F)c3)oc2c1F`, the figure is above 100 µM; as for `COc1ccccc1Nc1nc(N)nc(N)c1N=O`, above 100 µM; as for `COc1cccc2c(N)c3cccc(C(=O)NCCN(C)C)c3nc12`, 1.97 µM.
The same measure, in the same setting: for `O=C(CCCCCCCCC(=O)NN1C(=O)/C(=C\c2ccc(O)c(O)c2)SC1c1ccc(Cl)cc1)NN1C(=O)/C(=C\c2ccc(O)c(O)c2)SC1c1ccc(Cl)cc1` (centres undefined) the value was above 90.9 µM; for `CC(C)Sc1nc(C#N)cc2c1CCCC2`, above 100 µM; for `NC(=O)N/N=C(\Cc1nc2ccc(Cl)cc2[nH]c1=O)C(=O)Nc1ccc(Cl)cc1Cl`, above 100 µM.
With `O=C1/C(=C/c2ccccc2)N=C(c2ccccc2)N1n1c(-c2ccccc2)nc2ccccc2c1=O`, the TGI was above 100 µM.

The subject of another test is LOX IMVI melanoma. The test can be described thus: NCI tumour cell line growth inhibition, 48 h.
Turning to `COCOC1/C=C/CCCC#C[C@H](C)C(=O)CC1` (some centres undefined), the TGI turned out to be 11.5 µM.
For the compound `COc1ccc2[nH]c(O)c(/C=c3/cc4c(c(-c5cc(OC)c(OC)c(OC)c5)n3)=Nc3ccccc3-4)c2c1`, the GI50 was 7.54 µM and the TGI was above 100 µM.
In turn, `CC[C@]1(Cc2ccc(OC)c(OC)c2)CN(S(=O)(=O)c2ccc(C)cc2)C[C@@H]1OC(C)=O` displayed a TGI above 100 µM.
On the same count and under the same terms, as for `NCC1CCN(c2nc3ccccc3c3c2CCCC3)CC1`, the figure is 16 µM; as for `Cc1c(F)c(N)c2c(=O)cc(-c3ccc(NC(=O)CN(C)C)c(F)c3)oc2c1F`, above 100 µM.
Still for that read-out and setting: for `COc1ccccc1Nc1nc(N)nc(N)c1N=O` the value was above 100 µM; for `COc1cccc2c(N)c3cccc(C(=O)NCCN(C)C)c3nc12`, 0.472 µM; for `O=C(CCCCCCCCC(=O)NN1C(=O)/C(=C\c2ccc(O)c(O)c2)SC1c1ccc(Cl)cc1)NN1C(=O)/C(=C\c2ccc(O)c(O)c2)SC1c1ccc(Cl)cc1` (centres undefined), 57.6 µM.
Still for that read-out and setting: as for `CC(C)Sc1nc(C#N)cc2c1CCCC2`, the figure is 70.3 µM; as for `NC(=O)N/N=C(\Cc1nc2ccc(Cl)cc2[nH]c1=O)C(=O)Nc1ccc(Cl)cc1Cl`, above 100 µM; as for `O=C1/C(=C/c2ccccc2)N=C(c2ccccc2)N1n1c(-c2ccccc2)nc2ccccc2c1=O`, above 100 µM.

A further test concerns SK-MEL-28 melanoma. The test is described as follows: NCI tumour cell line growth inhibition, 48 h.
`COCOC1/C=C/CCCC#C[C@H](C)C(=O)CC1` (some centres undefined) registered a TGI of 29.4 µM.
On to `COc1ccc2[nH]c(O)c(/C=c3/cc4c(c(-c5cc(OC)c(OC)c(OC)c5)n3)=Nc3ccccc3-4)c2c1`, for which the GI50 is 26 µM and the TGI is above 100 µM.
With `CC[C@]1(Cc2ccc(OC)c(OC)c2)CN(S(=O)(=O)c2ccc(C)cc2)C[C@@H]1OC(C)=O`, the TGI is above 100 µM.
`NCC1CCN(c2nc3ccccc3c3c2CCCC3)CC1` displayed a TGI of 12 µM.
The same measure, in the same setting: for `Cc1c(F)c(N)c2c(=O)cc(-c3ccc(NC(=O)CN(C)C)c(F)c3)oc2c1F` the value was above 100 µM; for `COc1ccccc1Nc1nc(N)nc(N)c1N=O`, above 100 µM; for `COc1cccc2c(N)c3cccc(C(=O)NCCN(C)C)c3nc12`, 3.17 µM.
For `O=C(CCCCCCCCC(=O)NN1C(=O)/C(=C\c2ccc(O)c(O)c2)SC1c1ccc(Cl)cc1)NN1C(=O)/C(=C\c2ccc(O)c(O)c2)SC1c1ccc(Cl)cc1` (centres undefined), the TGI is above 100 µM.
Still for that read-out and setting: for `CC(C)Sc1nc(C#N)cc2c1CCCC2` the value was above 100 µM.
Same read-out and setting: for `NC(=O)N/N=C(\Cc1nc2ccc(Cl)cc2[nH]c1=O)C(=O)Nc1ccc(Cl)cc1Cl` the value was above 100 µM.
Compound `O=C1/C(=C/c2ccccc2)N=C(c2ccccc2)N1n1c(-c2ccccc2)nc2ccccc2c1=O` gave a TGI above 100 µM.

The test system of another test is SF-295 CNS. The test can be described thus: NCI tumour cell line growth inhibition, 48 h.
`COCOC1/C=C/CCCC#C[C@H](C)C(=O)CC1` (some centres undefined) gave a TGI of 31.7 µM.
As to `COc1ccc2[nH]c(O)c(/C=c3/cc4c(c(-c5cc(OC)c(OC)c(OC)c5)n3)=Nc3ccccc3-4)c2c1`, the GI50 was 8.97 µM and the TGI was above 100 µM.
As for `CC[C@]1(Cc2ccc(OC)c(OC)c2)CN(S(=O)(=O)c2ccc(C)cc2)C[C@@H]1OC(C)=O`, the TGI is above 100 µM.
`NCC1CCN(c2nc3ccccc3c3c2CCCC3)CC1` gave a TGI of 26.7 µM.
The same measure, in the same setting: for `Cc1c(F)c(N)c2c(=O)cc(-c3ccc(NC(=O)CN(C)C)c(F)c3)oc2c1F` the value was above 100 µM; for `COc1ccccc1Nc1nc(N)nc(N)c1N=O`, above 100 µM.
Still for that read-out and setting: as for `COc1cccc2c(N)c3cccc(C(=O)NCCN(C)C)c3nc12`, the figure is 2.01 µM; as for `O=C(CCCCCCCCC(=O)NN1C(=O)/C(=C\c2ccc(O)c(O)c2)SC1c1ccc(Cl)cc1)NN1C(=O)/C(=C\c2ccc(O)c(O)c2)SC1c1ccc(Cl)cc1` (centres undefined), 48.1 µM.
Still for that read-out and setting: for `CC(C)Sc1nc(C#N)cc2c1CCCC2` the value was above 100 µM.
With `NC(=O)N/N=C(\Cc1nc2ccc(Cl)cc2[nH]c1=O)C(=O)Nc1ccc(Cl)cc1Cl`, the TGI was above 100 µM.
Still for that read-out and setting: for `O=C1/C(=C/c2ccccc2)N=C(c2ccccc2)N1n1c(-c2ccccc2)nc2ccccc2c1=O` the value was above 100 µM.
